Values of other authors as cited in patent publication US20090053275A1, “Foam/spray producing compositions and dispencing system therefor” (priority 2000, published 2009).

water solubility: not water soluble
SMILES: Oc1cc(Cl)ccc1Oc1ccc(Cl)cc1Cl [triclosan]
